Experimental data taken from PMC8373063 (2021).

Assays:
[1] = system: RNA Seq6 (RNA, single strand) UGAAGGAAGGU; assay: fluorescence polarization; settings: 100 mM NaCl; 20 mM HEPES, 25 °C, 0.5 μM compound
[2] = system: DNA Seq6 (DNA, single strand) TGAAGGAAGGT; assay: fluorescence polarization; settings: 100 mM NaCl, 1 mM MgCl2; 20 mM HEPES, 25 °C, 0.5 μM compound
[3] = system: DNA Seq6 (DNA, single strand) TGAAGGAAGGT; assay: fluorescence polarization; settings: 100 mM NaCl, 1 mM MgCl2; 20 mM HEPES, 25 °C, 0.5 μM compound; remark: listed apart in the source
[4] = system: RNA Seq4 (immobilised) (RNA, single strand) AAGAAGGAAGGUGC; assay: SPR, immobilised RNA; settings: running buffer not shown; SMN-C5 up to 40 μM
[5] = system: DNA Seq6 (DNA, single strand) TGAAGGAAGGT; assay: competitive fluorescence polarization; settings: 100 mM NaCl, 1 mM MgCl2, 20 mM HEPES, tracer 0.5 μM SMN-C2 displaced from 25 μM DNA Seq6
[6] = system: RNA Seq4 (RNA, single strand) AAGAAGGAAGGUGC; assay: fluorescence polarization; settings: 100 mM NaCl; 20 mM HEPES, 25 °C, 0.5 μM compound
[7] = system: RNA Seq6 (RNA, single strand) UGAAGGAAGGU; assay: fluorescence polarization; settings: 100 mM NaCl; 20 mM HEPES, 25 °C, 0.5 μM compound; remark: listed apart in the source

Row | Compound | Kd [1] | Kd [2] | other results
1 | CN1CCN(c2cc(F)c3cc(-c4ccc(Cl)cc4)c(=O)oc3c2)CC1 | 30.9 ± 6.7 µM | 9.9 ± 0.9 µM | 
2 | CN1CCN(c2cc(F)c3cc(-c4cccc(Cl)c4)c(=O)oc3c2)CC1 | 32.8 ± 5.6 µM | 18.7 ± 4.0 µM | 
3 | CN1CCN(c2ccc3cc(-c4ccc(Cl)cc4)c(=O)oc3c2)CC1 | 30.6 ± 12.3 µM | 8.2 ± 0.7 µM | 
4 | CN1CCN(c2ccc3cc(-c4cccc(Cl)c4)c(=O)oc3c2)CC1 | 35.9 ± 14.8 µM | 13.9 ± 1.1 µM | 
5 | CN1CCN(c2ccc3cc(-c4ccccc4Cl)c(=O)oc3c2)CC1 | > >100 μM |  | Kd [3]: > 100 µM
6 | COc1cn2cc(-c3cc4ccc(N5CCNCC5)cc4oc3=O)nc2cn1 | 11.4 ± 0.7 µM |  | Kd [3]: 1.4 ± 0.2 µM
7 | Cc1cn2cc(-c3cc(=O)n4cc(N5CCN(C)CC5)ccc4n3)cc(F)c2n1 |  |  | Kd [4]: 8.0 µM; apparent Kd [5]: 5.8 ± 2.5 µM
8 | Cc1cn2cc(-c3cc4ccc(N5CCN[C@@H](C)C5)cc4oc3=O)nc2c(C)n1 |  |  | Kd [7]: 18.5 ± 5.4 µM; Kd [3]: 2.9 ± 0.3 µM; Kd [6]: 25.4 ± 7.3 µM
9 | O=c1oc2cc(N3CCNCC3)ccc2cc1-c1cn2ccccc2n1 | 14.5 ± 2.3 µM | 2.8 ± 0.5 µM | 

Second part, led by results:

Row | Kd [1] | Kd [2] | Compound | other results
10 | > >100 μM | > >100 μM | Cc1c(-c2ccc(Cl)cc2)c(=O)oc2cc(N3CCN(C)CC3)ccc12 | 
11 | > >100 μM | > >100 μM | Cc1c(-c2cccc(Cl)c2)c(=O)oc2cc(N3CCN(C)CC3)ccc12 | 
12 | 51.2 ± 4.9 µM | 4.0 ± 0.3 µM | Cc1cn2cc(-c3cc4ccc(N5CCN(CCNC(=O)OC(C)(C)C)[C@@H](C)C5)cc4oc3=O)nc2c(C)n1 | Kd [6]: 37.5 ± 14.0 µM
